Measured values as given in patent publication EP4635949A1 (Jiangsu NHWA Pharmaceutical Co., Ltd, priority 2022, dated 2024).
pIC50: −log10 of the molar value. Read-outs that look alike come from different tables or passages of the source. Marks after values point to notes of the source that are not given here.

Assays:
[1] = system: SD rats; test: Autonomous activity of rats; format: in vivo
Description: The animals were placed in the test box immediately after administration, and the activity distance of the animals within 60 minutes was recorded and analyzed using Top Scan Version 3.0. […] The experimental data were expressed by mean ± standard deviation (Mean ± SD), and SPSS 21.0 statistical software was used for one-way analysis of variance. The Dunnett's test was used for pairwise comparison, and p<0.05 was represented as *.

[2] = in vivo; details: rat
[3] = molecular target: T1, OX2 receptor (Homo sapiens, UniProt O43614); test: Orexin target function test (Cisbio HTRF IP-one), CHO-K1-OX2 cells, antagonism of EC80 Orexin 2 receptor agonist; format: cell-based
T1 construct: host or cells: CHO-K1
T1 sequence (O43614 1-444): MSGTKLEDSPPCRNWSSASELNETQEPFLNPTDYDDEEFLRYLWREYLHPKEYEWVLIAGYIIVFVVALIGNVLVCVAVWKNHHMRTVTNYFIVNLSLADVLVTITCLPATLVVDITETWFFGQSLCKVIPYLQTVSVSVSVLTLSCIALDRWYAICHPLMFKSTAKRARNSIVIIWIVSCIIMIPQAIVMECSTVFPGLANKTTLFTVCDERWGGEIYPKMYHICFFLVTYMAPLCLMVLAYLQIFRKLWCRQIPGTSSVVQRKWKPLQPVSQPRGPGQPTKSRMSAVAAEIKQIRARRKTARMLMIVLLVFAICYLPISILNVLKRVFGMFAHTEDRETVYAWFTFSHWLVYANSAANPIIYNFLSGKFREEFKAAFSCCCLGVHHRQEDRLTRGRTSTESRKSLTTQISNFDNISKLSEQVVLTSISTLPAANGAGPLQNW
Description: (§1) Using Cisbio HTRF IP-one kit to detect the changes in IP-one concentration of orexin receptor (OX1/OX2) signaling pathway by microplate reader, and calculating the IC50 value of the compound to evaluate the antagonistic effect of the compound on OX1 and OX2 receptors.
(§2) The cells were centrifuged at 1000 rpm for 5 minutes and the supernatant was discarded. 3 mL of PBS was added, and gently blown with a pipette to mix. After centrifugation at 1000 rpm for 5 minutes again, the supernatant was discarded. […] Based on the antagonistic effect values of the compound samples at different concentrations, the GraphPad Prism software was used to fit the orexin receptor antagonism curve of the compound samples and calculate the IC50.

[4] = molecular target: T2, OX1 receptor (Homo sapiens, UniProt O43613); test: Orexin target function test (Cisbio HTRF IP-one), CHO-K1-OX1 cells, antagonism of EC80 Orexin A; format: cell-based
T2 construct: host or cells: CHO-K1
T2 sequence (O43613 1-425): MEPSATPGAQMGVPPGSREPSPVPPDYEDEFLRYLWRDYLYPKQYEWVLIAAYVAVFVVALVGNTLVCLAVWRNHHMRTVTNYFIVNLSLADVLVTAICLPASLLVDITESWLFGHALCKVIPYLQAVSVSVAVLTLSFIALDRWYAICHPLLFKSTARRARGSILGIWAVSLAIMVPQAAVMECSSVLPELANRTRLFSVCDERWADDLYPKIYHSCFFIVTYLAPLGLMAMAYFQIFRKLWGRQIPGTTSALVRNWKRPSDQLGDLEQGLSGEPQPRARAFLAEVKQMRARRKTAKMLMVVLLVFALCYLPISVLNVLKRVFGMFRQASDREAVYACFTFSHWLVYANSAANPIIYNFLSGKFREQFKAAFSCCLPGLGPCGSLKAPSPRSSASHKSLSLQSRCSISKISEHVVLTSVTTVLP
Description: as §1, §2

[5] = Blood-brain barrier permeability of the test substance in rats; details: male, SD, rat, oral, 30 mg/kg
Description: Twelve male SD rats were randomly divided into 4 groups, with 3 rats in each group. They were fasted for 8 hours before the test and had free access to water. The rats were intragastrically administered with 30 mg/kg of the test substance solution, and 0.3 mL of blood was collected from the jugular venous plexus of the rats before and 0.25 hours after administration. The rats were then anesthetized, the chest cavity was opened, the right atrial appendage was cut, and the blood was rapidly perfused from the back of the left ventricle. When the outflowing liquid was transparent and bloodless, the perfusion could be stopped, and the brain tissue was removed, dried with filter paper, weighed, and homogenized with an appropriate amount of physiological saline (1:4, v/v) to prepare a brain tissue homogenate. The whole blood sample was centrifuged at 4000 r/min for 10 min to separate the plasma.
The established LC-MS/MS method is used to detect the concentration of the test substance in plasma and brain tissue homogenate. The brain-to-blood ratio (Kb/p) of the test substance can be obtained by dividing the drug concentration in brain tissue by the drug concentration in plasma.

[6] = CHO-K1-OX2 cells, IP-one, read-out: hOX2R IC50
[7] = ratio of OX1R IC50 to OX2R IC50
[8] = CHO-K1-OX1 cells, IP-one, read-out: hOXIR IC50
[9] = male SD rats, dose 10 mg/kg, versus blank vehicle group
[10] = male SD rats, dose 10 mg/kg, within 60 minutes, Mean ± SD
[11] = male SD rats, dose 30 mg/kg, versus blank vehicle group
[12] = male SD rats, dose 30 mg/kg, within 60 minutes, Mean ± SD
[13] = male SD rats, dose 50 mg/kg, versus blank vehicle group
[14] = male SD rats, dose 50 mg/kg, within 60 minutes, Mean ± SD

| Compound | pIC50 [3] | Selectivity [3] | pIC50 [4] | AUC(0-t) ([2]; male, SD, plasma, iv, 1 mg/kg) | Cmax ([2]; male, SD, plasma, iv, 1 mg/kg) | AUC(0-t) ([2]; male, SD, plasma, po, 30 mg/kg) | Cmax ([2]; male, SD, plasma, po, 30 mg/kg) | bioavailability ([2]; male, SD, plasma, po, 30 mg/kg) | pIC50 [3, 6] | Selectivity [3, 7] | pIC50 [4, 8] | other results |
| --- | --- | --- | --- | --- | --- | --- | --- | --- | --- | --- | --- | --- |
| COc1cc(-n2nccn2)c(C(=O)N2CC3C=C(c4nc(C)c(F)c(C)n4)CC3C2)cn1 (stereo not drawn) [Compound 22] | 7.82 | 185 | 5.56 |  |  |  |  |  |  |  |  | Activity distance (mm) ([1]; rat, in vivo, 10 mg/kg): 43970.97±9243.91 mm; Inhibition rate(%) ([1]; rat, in vivo, 10 mg/kg): 38.10* %; Activity distance (mm) ([1]; rat, in vivo, 30 mg/kg): 37396.46±6850.26 mm; Inhibition rate(%) ([1]; rat, in vivo, 30 mg/kg): 47.35* %; Activity distance (mm) ([1]; rat, in vivo, 50 mg/kg): 33132.59±9708.72 mm; Inhibition rate(%) ([1]; rat, in vivo, 50 mg/kg): 56.36* %; AUC(0-t) ([2]; in vivo, iv, 1 mg/kg): 305 ng·h/mL; Cmax ([2]; in vivo, iv, 1 mg/kg): 943 ng/mL; AUC(0-t) ([2]; in vivo, po, 30 mg/kg): 2640 ng·h/mL; Cmax ([2]; in vivo, po, 30 mg/kg): 1940 ng/mL; bioavailability ([2]; in vivo, po, 30 mg/kg): 28.9% |
| COc1ccc(C(=O)N2CC3C=C(c4nc(C)cnc4OC)CC3C2)c(-c2ncccn2)c1 (stereo not drawn) [Compound 48, [4-methoxy-2-(pyrimidin-2-yl)phenyl][5-(3-methoxy-6-methylpyrazin-2-yl)-3,3a,4,6a-tetrahydrocyclopenta[c]pyrrol-2(1H)-yl]methanone] |  |  |  | 886 ng·h/mL | 3310 ng/mL | 10100 ng·h/mL | 9410 ng/mL | 37.8% | 7.68 | 154 | 5.49 |  |
| COc1nc(C2=CC3CN(C(=O)c4c(F)cccc4-n4nccn4)CC3C2)nc(C)c1F (stereo not drawn) [Compound 8, (5-(5-fluoro-4-methoxy-6-methylpyrimidin-2-yl)-3,3a,4,6a-tetrahydrocyclopenta[c]pyrrol-2(1H)-yl)(2-fluoro-6-(2H-1,2,3-triazol-2-yl)phenyl)methanone] |  |  |  | 808 ng·h/mL | 3220 ng/mL | 16900 ng·h/mL | 13800 ng/mL | 69.8% | 7.92 | 100 | 5.91 |  |
| COc1ccc(C(=O)N2CC3C=C(c4nc(C)c(F)c(C)n4)CC3C2)c(-n2nccn2)c1 (stereo not drawn) [Compound 5, (5-(5-fluoro-4,6-dimethylpyrimidin-2-yl)-3,3a,4,6a-tetrahydrocyclopenta[c]pyrrol-2(1H)-yl)(4-methoxy-2-(2H-1,2,3-triazol-2-yl)phenyl)methanone] | 7.80 | 171 | 5.55 | 738 ng·h/mL | 1600 ng/mL | 18500 ng·h/mL | 13800 ng/mL | 83.6% |  |  |  | Activity distance (mm) ([1]; rat, in vivo, 10 mg/kg): 44396.01±2185.62 mm; Inhibition rate(%) ([1]; rat, in vivo, 10 mg/kg): 37.50* %; Activity distance (mm) ([1]; rat, in vivo, 30 mg/kg): 32526.47±1464.45 mm; Inhibition rate(%) ([1]; rat, in vivo, 30 mg/kg): 45.79* % |
| CCOc1ccc(C(=O)N2CC3C=C(c4nc(C)cnc4OC)CC3C2)c(-n2nccn2)c1 (stereo not drawn) [Compound 45, [4-ethoxy-2-(2H-1,2,3-triazol-2-yl)phenyl][5-(3-methoxy-6-methylpyrazin-2-yl)-3,3a,4,6a-tetrahydrocyclopenta[c]pyrrol-2(1H)-yl]methanone] |  |  |  | 1560 ng·h/mL | 2520 ng/mL | 36000 ng·h/mL | 19600 ng/mL | 77.1% | 7.60 | 125 | 5.52 |  |
| COc1ncc(C)nc1C1=CC2CN(C(=O)c3ccc(F)cc3-n3cccn3)CC2C1 (stereo not drawn) [Compound 61, [4-fluoro-2-(1H-pyrazol-1-yl)phenyl][5-(3-methoxy-6-methylpyrazin-2-yl)-3,3a,4,6a-tetrahydrocyclopenta[c]pyrrol-2(1H)-yl]methanone] |  | 150 |  | 737 ng·h/mL | 1920 ng/mL | 5400 ng·h/mL | 5690 ng/mL | 24.4% | 7.85 |  | 5.68 |  |
| CCOc1ncc(C)nc1C1=CC2CN(C(=O)c3ccc(OC)cc3-n3nccn3)CC2C1 (stereo not drawn) [Compound 46, [5-(3-ethoxy-6-methylpyrazin-2-yl)-3,3a,4,6a-tetrahydrocyclopenta[c]pyrrol-2(1H)-yl][4-methoxy-2-(2H-1,2,3-triazol-2-yl)phenyl]methanone] |  |  |  |  |  |  |  |  |  |  |  | concentration at 0.25 h ([5]; brain): 210 ng/g; Kp at 0.25 h ([5]; brain/plasma): 0.43; concentration at 0.25 h ([5]; plasma): 485 ng/mL |
| Cc1nc(C2=CC3CN(C(=O)c4ccc(F)cc4-n4nccn4)CC3C2)nc(C)c1F (stereo not drawn) [Compound 2, (4-fluoro-2-(2H-1,2,3-triazol-2-yl)phenyl)(5-(5-fluoro-4,6-dimethylpyrimidin-2-yl)-3,3a,4,6a-tetrahydrocyclopenta[c]pyrrol-2(1H)-yl)methanone] | 7.74 | 128 | 5.64 | 869 ng·h/mL | 1880 ng/mL | 15000 ng·h/mL | 7480 ng/mL | 57.6% |  |  |  | Activity distance (mm) ([1]; rat, in vivo, 10 mg/kg): 52097.9±18671.68 mm; Inhibition rate(%) ([1]; rat, in vivo, 10 mg/kg): 26.66* %; Activity distance (mm) ([1]; rat, in vivo, 30 mg/kg): 46276.83±15906.44 mm; Inhibition rate(%) ([1]; rat, in vivo, 30 mg/kg): 34.85 * %; Activity distance (mm) ([1]; rat, in vivo, 50 mg/kg): 37866.51±7149.48 mm; Inhibition rate(%) ([1]; rat, in vivo, 50 mg/kg): 46.69* % |
| Cc1nc(C2=CC3CN(C(=O)c4c(F)cccc4-n4nccn4)CC3C2)nc(C)c1F (stereo not drawn) [Compound 1, (5-(5-fluoro-4,6-dimethylpyrimidin-2-yl)-3,3a,4,6a-tetrahydrocyclopenta[c]pyrrol-2(1H)-yl)(2-fluoro-6-(2H-1,2,3-triazol-2-yl)phenyl)methanone] |  | 80 |  |  |  |  |  |  | 7.85 |  | 5.95 | Inhibition rate(%) [1, 9]: 16.33%; Activity distance (mm) [1, 10]: 59434.65±1478.32 mm; Inhibition rate(%) [1, 11]: 23.37* %; Activity distance (mm) [1, 12]: 54433.35±3341.26 mm; Inhibition rate(%) [1, 13]: 59.81* %; Activity distance (mm) [1, 14]: 28548.56±1238.05 mm |
| [2H]C([2H])([2H])c1nc(C2=CC3CN(C(=O)c4ccc(F)cc4-n4nccn4)CC3C2)nc(C([2H])([2H])[2H])c1F (stereo not drawn) [Compound 30, (4-fluoro-2-(2H-1,2,3-triazol-2-yl)phenyl)(5-(5-fluoro-4,6-bis(methyl-d3)pyrimidin-2-yl)-3,3a,4,6a-tetrahydrocyclopenta[c]pyrrol-2(1H)-yl)methanone] | 7.68 |  | 5.41 |  |  |  |  |  |  | 186 |  |  |
| [2H]C([2H])([2H])Oc1ccc(C(=O)N2CC3C=C(c4nc(C)cnc4OC)CC3C2)c(-n2nccn2)c1 (stereo not drawn) [Compound 57, [5-(3-methoxy-6-methylpyrazin-2-yl)-3,3a,4,6a-tetrahydrocyclopenta[c]pyrrol-2(1H)-yl][4-(methoxy-d3)-2-(2H-1,2,3-triazol-2-yl)phenyl]methanone] |  |  |  |  |  |  |  |  | 7.74 | 176 | 5.50 |  |
| COc1ccc(C(=O)N2CC3C=C(c4nc(CF)cnc4OC)CC3C2)c(-n2nccn2)c1 (stereo not drawn) [Compound 59, [5-[6-(fluoromethyl)-3-methoxypyrazin-2-yl]-3,3a,4,6a-tetrahydrocyclopentyl[c]pyrrol-2(1H)-yl][4-methoxy-2-(2H-1,2,3-triazol-2-yl)phenyl]methanone] |  |  |  |  |  |  |  |  | 7.77 | 106 | 5.74 |  |
| Cc1nc(C2=CC3CN(C(=O)c4c(F)cccc4-n4nccn4)CC3C2)nc2c1COC2 (stereo not drawn) [Compound 20, (2-fluoro-6-(2H-1,2,3-triazol-2-yl)phenyl)(5-(4-methyl-5,7-dihydrofuro[3,4-d]pyrimidin-2-yl)-3,3a,4,6a-tetrahydrocyclopenta[c]pyrrol-2(1H)-yl)methanone] |  |  |  |  |  |  |  |  | 7.61 | 129 | 5.50 | Inhibition rate(%) [1, 9]: 14.67%; Activity distance (mm) [1, 10]: 60610.23±1657.26 mm; Inhibition rate(%) [1, 11]: 24.24* %; Activity distance (mm) [1, 12]: 53815.36±1401.21 mm; Inhibition rate(%) [1, 13]: 31.17* %; Activity distance (mm) [1, 14]: 48892.70±2164.16 mm |
